Assay results: ChEMBL document CHEMBL3046082, “Control of Rice Blast Disease by Submerged Treatment with SSF-126” (J Pestic Sci, 1997)

Experiments:
Pyricularia oryzae [1] = assay: Antifungal activity against Magnaporthe oryzae in fourth-leaf stage of rice plant assessed as appressorial formation at 36 g/a after 24 hr (reference value: 90.4 +/- 5.6%); format: functional
Pyricularia oryzae [2] = assay: Antifungal activity against Magnaporthe oryzae in fourth-leaf stage of rice plant assessed as spore germination at 36 g/a after 24 hr (reference value: 97.2 +/- 2.7%); format: functional
Pyricularia oryzae [3] = assay: Antifungal activity against Magnaporthe oryzae in fourth-leaf stage of rice plant assessed as spore germination at 9 g/a after 24 hr (reference value: 97.2 +/- 2.7%); format: functional
Root = assay: Drug level in Oryza sativa (rice) plant root at 18 g/a up to 42 days; format: ADME; conditions: 1008 h
Leaf [4] = assay: Drug level in Oryza sativa (rice) plant leaf at 18 g/a after 10 days; format: ADME; conditions: 240 h
Pyricularia oryzae [5] = assay: Antifungal activity against Magnaporthe oryzae in fourth-leaf stage of rice plant assessed as appressorial formation at 18 g/a after 24 hr (reference value: 90.4 +/- 5.6%); format: functional
Leaf [6] = assay: Drug level in Oryza sativa (rice) plant leaf at 18 g/a up to 42 days; format: ADME; conditions: 1008 h
Pyricularia oryzae [7] = assay: Antifungal activity against Magnaporthe oryzae in fourth-leaf stage of rice plant assessed as spore germination at 18 g/a after 24 hr (reference value: 97.2 +/- 2.7%); format: functional
Pyricularia oryzae [8] = assay: Antifungal activity against Magnaporthe oryzae in fourth-leaf stage of rice plant assessed as appressorial formation at 9 g/a after 24 hr (reference value: 90.4 +/- 5.6%); format: functional

CNC(=O)/C(=N\OC)c1ccccc1Oc1ccccc1
Activity (Pyricularia oryzae [1]): 91.9%
Activity (Pyricularia oryzae [2]): 96.4%
Activity (Pyricularia oryzae [3]): 97.1%
Drug uptake (Root): < 2 ppm
Drug uptake (Leaf [4]): 20 ppm
Activity (Pyricularia oryzae [5]): 91.2%
Drug uptake (Leaf [6]): < 2 ppm
Activity (Pyricularia oryzae [7]): 96.5%
Activity (Pyricularia oryzae [8]): 92.2%
